The source of these data is ChEMBL document CHEMBL1799917, “Isolation, sequencing, and structure-activity relationships of cyclotides” (J Nat Prod, 2010).

The EC50 is the concentration giving half of the maximal effect. The IC50 is the concentration needed to halve the response being measured. For orientation: MIC means the lowest concentration found to suppress growth. Read a high MIC as a less susceptible organism.

≈ marks a conversion by molar mass, not a printed value. Where a SMILES comes first, the peptide text is derived from it. Bridges are numbered along the chain shown (N, C = ends). [ ]: non-standard residue; d: D form. aThr = C[C@H](O)[C@H](N)C(=O)O

Data set [1] deals with Human immunodeficiency virus 1. As to the kind of experiment: Antiviral activity against HIV1. The format is functional, organism-based.
In the next data set the test system is CEM-SS (Homo sapiens). As to the kind of experiment: Cytotoxicity against human CEM-SS cells.
In a further data set the test system is Proteus vulgaris. As to the kind of experiment: Antimicrobial activity against Proteus vulgaris ATCC 49132. The format is functional.
Another data set relates to Klebsiella oxytoca. As to the kind of experiment: Antimicrobial activity against Klebsiella oxytoca ATCC 49131. The format is functional.
The test system of the next data set is Staphylococcus aureus. As to the kind of experiment: Antimicrobial activity against Staphylococcus aureus ATCC 29213. The format is functional.
The nature of data set [2]: Hemolytic activity in human type A RBC. The format is ADME, cell-based, Erythrocyte. As to conditions: human type A red blood cells, read-out: HD50 (the source's name).
In another data set the test system is Pseudomonas aeruginosa. As to the kind of experiment: Antimicrobial activity against Pseudomonas aeruginosa ATCC 27853. The format is functional.
A further data set concerns Kluyveromyces marxianus. As to the kind of experiment: Antimicrobial activity against Candida kefyr ATCC 37095. The format is functional.
The next data set deals with Escherichia coli. As to the kind of experiment: Antimicrobial activity against Escherichia coli ATCC 25922. The format is functional.
For a further data set, the system named is R1. As to the kind of experiment: Cytotoxicity against mouse R1 cells after 72 hrs by fluorometric microculture cytotoxicity assay. The format is cell-based. To be noted: R1, 72 h.
A further data set has as its system Candida tropicalis. As to the kind of experiment: Antimicrobial activity against Candida tropicalis ATCC 37097. The format is functional.
In data set [3] the test system is Human immunodeficiency virus 1. As to the kind of experiment: Antiviral activity against HIV1 infected in human CEM-SS cells assessed as protection against virus-induced cytopathic effect by XTT method. The format is functional, organism-based. To be noted: Human immunodeficiency virus 1, CEM-SS. (Cytopathic effects are the visible damage that an infection or toxin causes in cultured cells.)

With `CC[C@H](C)[C@@H]1NC(=O)CNC(=O)[C@H](CC(N)=O)NC(=O)[C@H](CCCNC(=N)N)NC(=O)[C@H](Cc2ccc(O)cc2)NC(=O)[C@@H]2CSSC[C@@H]3NC(=O)[C@@H]4CCCN4C(=O)[C@H]([C@@H](C)CC)NC(=O)[C@H](Cc4ccccc4)NC(=O)[C@H](C(C)C)NC(=O)[C@@H]4CSSC[C@H](NC(=O)[C@H](CO)NC(=O)[C@H](CSSC[C@H](NC(=O)[C@@H]5CCCN5C1=O)C(=O)NCC(=O)N[C@@H](CCC(=O)O)C(=O)N[C@@H](CO)C(=O)N4)NC(=O)CNC(=O)[C@H](C)NC(=O)[C@H](C(C)C)NC(=O)[C@H]([C@@H](C)O)NC(=O)[C@H]([C@@H](C)O)NC(=O)[C@H](CC(C)C)NC3=O)C(=O)N[C@@H](CCCCN)C(=O)N[C@@H](CC(N)=O)C(=O)N[C@@H](CCCCN)C(=O)N[C@@H](C(C)C)C(=O)N2` [CYCLOVIOLIN C] (cyclo(AGCSCKNKVCYRNGIPCGESCVFIPCLTTV); disulfide 3-17, 5-21, 10-26), the EC50 in data set [1] turned out to be 130 nM. In the data set on CEM-SS (Homo sapiens), the midpoint of inhibition, the IC50, lay at 560 nM.
For `CC[C@H](C)[C@@H]1NC(=O)[C@H](C)NC(=O)[C@H](C)NC(=O)[C@H](CO)NC(=O)[C@H]([C@@H](C)CC)NC(=O)[C@@H]2CSSC[C@@H]3NC(=O)[C@H](C(C)C)NC(=O)[C@H](CCCCN)NC(=O)[C@H](CC(N)=O)NC(=O)[C@H](CCCCN)NC(=O)[C@@H]4CSSC[C@H](NC(=O)[C@H](CO)NC(=O)[C@H](CCC(=O)O)NC(=O)CNC(=O)[C@H](CSSC[C@H](NC(=O)CNC1=O)C(=O)N[C@@H](CO)C(=O)N4)NC(=O)[C@@H]1CCCN1C(=O)[C@H]([C@@H](C)CC)NC(=O)[C@H](C(C)C)NC(=O)CNC(=O)[C@H](CC(N)=O)NC(=O)[C@H](CCCNC(=N)N)NC(=O)[C@H](Cc1ccc(O)cc1)NC3=O)C(=O)N[C@@H](C(C)C)C(=O)N[C@@H](Cc1ccccc1)C(=O)N[C@@H]([C@@H](C)CC)C(=O)N1CCC[C@H]1C(=O)N2` [CYCLOVIOLN A] (cyclo(AAIGCSCKNKVCYRNGVIPCGESCVFIPCIS); disulfide 5-20, 7-24, 12-29), in that order: 130 nM and 560 nM.
Turning to `CC[C@H](C)[C@@H]1NC(=O)[C@@H]2CSSC[C@@H]3NC(=O)[C@H](C(C)C)NC(=O)[C@H](CCCCN)NC(=O)[C@H](CC(N)=O)NC(=O)[C@H](CCCCN)NC(=O)[C@@H]4CSSC[C@H](NC(=O)[C@H](CO)NC(=O)[C@H](CCC(=O)O)NC(=O)CNC(=O)[C@H](CSSC[C@H](NC(=O)CNC(=O)[C@H](CC(C)C)NC(=O)[C@H](CC(C)C)NC(=O)[C@H]([C@@H](C)O)NC(=O)[C@H](CO)NC1=O)C(=O)N[C@@H](CO)C(=O)N4)NC(=O)[C@@H]1CCCN1C(=O)[C@H]([C@@H](C)CC)NC(=O)[C@H](C(C)C)NC(=O)CNC(=O)[C@H](CC(N)=O)NC(=O)[C@H](CCCNC(=N)N)NC(=O)[C@H](Cc1ccc(O)cc1)NC3=O)C(=O)N[C@@H](C(C)C)C(=O)N[C@@H](Cc1ccccc1)C(=O)N[C@@H]([C@@H](C)CC)C(=O)N1CCC[C@H]1C(=O)N2` [CIRCULIN B] (cyclo(CGESCVFIPCISTLLGCSCKNKVCYRNGVIP); disulfide 1-17, 5-19, 10-24), the minimal inhibitory concentration (MIC) was 6.8 µM (≈ 22.3 µg/mL) against Proteus vulgaris; 8.2 µM (≈ 26.9 µg/mL) against Klebsiella oxytoca; 13.5 µM (≈ 44.3 µg/mL) against Staphylococcus aureus; 25.5 µM (≈ 83.7 µg/mL) in the data set on Pseudomonas aeruginosa; 29 µM (≈ 95.2 µg/mL) with Kluyveromyces marxianus; 0.41 µM (≈ 1.35 µg/mL) in the data set on Escherichia coli. The HC50 in data set [2] was 550 µM. The figures for the IC50 in the data set on R1 and in the data set on CEM-SS (Homo sapiens) were 820000 nM and 500 nM, respectively.
`CC(C)C[C@@H]1NC(=O)[C@H](C(C)C)NC(=O)[C@H](Cc2ccc(O)cc2)NC(=O)[C@@H]2CSSC[C@@H]3NC(=O)[C@H]([C@@H](C)O)NC(=O)[C@@H]4CSSC[C@H](NC(=O)[C@H](C)NC(=O)[C@H]([C@@H](C)O)NC(=O)CNC(=O)[C@H](CC(N)=O)NC(=O)[C@H](CCCCN)NC(=O)[C@H](Cc5ccccc5)NC(=O)[C@H](CSSC[C@H](NC(=O)[C@@H]5CCCN5C1=O)C(=O)N[C@@H](Cc1ccccc1)C(=O)N[C@@H]([C@@H](C)O)C(=O)N[C@@H](C(C)C)C(=O)NCC(=O)N4)NC(=O)[C@H](CCC(N)=O)NC(=O)[C@H](CO)NC(=O)[C@H](CO)NC(=O)[C@H]([C@@H](C)O)NC3=O)C(=O)NCC(=O)N[C@@H](CCC(=O)O)C(=O)N[C@@H](CO)C(=O)N2` [CYCLOVIOLIN B] (cyclo(ACGESCYVLPCFTVGCTCTSSQCFKNGT); disulfide 2-16, 6-18, 11-23) came in with an EC50 in data set [1] of 130 nM. This compound displayed a 50% inhibitory concentration (IC50) in the data set with CEM-SS (Homo sapiens) of 560 nM.
In the case of `CC[C@H](C)[C@@H]1NC(=O)[C@@H]2CSSC[C@@H]3NC(=O)[C@H](C(C)C)NC(=O)[C@H](CCCCN)NC(=O)[C@H](CC(N)=O)NC(=O)[C@H](CCCCN)NC(=O)[C@@H]4CSSC[C@H](NC(=O)[C@H](CO)NC(=O)[C@H](CCC(=O)O)NC(=O)CNC(=O)[C@H](CSSC[C@H](NC(=O)CNC(=O)[C@H](CC(C)C)NC(=O)[C@H](C)NC(=O)[C@H](C)NC(=O)[C@H](CO)NC1=O)C(=O)N[C@@H](CO)C(=O)N4)NC(=O)[C@@H]1CCCN1C(=O)[C@H]([C@@H](C)CC)NC(=O)CNC(=O)[C@H](CC(N)=O)NC(=O)[C@H](CCCNC(=N)N)NC(=O)[C@H](Cc1ccc(O)cc1)NC3=O)C(=O)N[C@@H](C(C)C)C(=O)N[C@@H](Cc1c[nH]c3ccccc13)C(=O)N[C@@H]([C@@H](C)CC)C(=O)N1CCC[C@H]1C(=O)N2` [CIRCULIN A] (cyclo(AALGCSCKNKVCYRNGIPCGESCVWIPCIS); disulfide 5-19, 7-23, 12-28), the MIC came to 54.6 µM (≈ 172 µg/mL) with Proteus vulgaris, 0.19 µM (≈ 0.599 µg/mL) against Staphylococcus aureus, 18.6 µM (≈ 58.6 µg/mL) in the data set with Kluyveromyces marxianus and 19.4 µM (≈ 61.1 µg/mL) in the data set on Candida tropicalis. Moreover, in data set [2], the HC50 was 1020 µM. The 50% inhibitory concentration (IC50) in the data set on CEM-SS (Homo sapiens) turned out to be 500 nM.
Take `CC[C@H](C)[C@@H]1NC(=O)[C@@H]2CCCN2C(=O)[C@H](CS)NC(=O)CNC(=O)[C@H](CCC(=O)O)NC(=O)[C@H](CO)NC(=O)[C@H](CS)NC(=O)[C@H](C(C)C)NC(=O)[C@H](Cc2ccccc2)NC(=O)[C@H]([C@@H](C)CC)NC(=O)[C@@H]2CCCN2C(=O)[C@H](CS)NC(=O)[C@H]([C@H](C)O)NC(=O)[C@H](C(C)C)NC(=O)[C@H]([C@H](C)O)NC(=O)[C@H](C)NC(=O)[C@H](CC(C)C)NC(=O)[C@H](CC(C)C)NC(=O)CNC(=O)[C@H](CS)NC(=O)[C@H](CO)NC(=O)[C@H](CS)NC(=O)[C@H](CCCCN)NC(=O)[C@H](CO)NC(=O)[C@H](CCCCN)NC(=O)[C@H](C(C)C)NC(=O)[C@H](CS)NC(=O)[C@H](Cc2ccc(O)cc2)NC(=O)[C@H](CCCCN)NC(=O)[C@H](CC(N)=O)NC(=O)[C@H](CO)NC1=O` [CYCLOPSYCHOTRIDE A] (cyclo(A[aThr]V[aThr]CPIFVCSEGCPISNKYCVKSKCSCGLL)): the MIC against Proteus vulgaris turned out to be 13.2 µM (≈ 42.7 µg/mL); against Klebsiella oxytoca, 5.8 µM (≈ 18.8 µg/mL); against Staphylococcus aureus it was 39 µM (≈ 126 µg/mL); against Pseudomonas aeruginosa, 13.5 µM (≈ 43.7 µg/mL); against Kluyveromyces marxianus it was 14 µM (≈ 45.3 µg/mL); in the data set with Candida tropicalis, 56.5 µM (≈ 183 µg/mL). This compound registered an MIC with Escherichia coli of 1.55 µM (≈ 5.02 µg/mL). Further, the HC50 in [2] stood at 405 µM.
Consider `CC[C@H](C)[C@@H]1NC(=O)[C@H](C)NC(=O)[C@H](C)NC(=O)[C@H](CO)NC(=O)[C@H]([C@@H](C)CC)NC(=O)[C@@H]2CSSC[C@@H]3NC(=O)[C@H](C(C)C)NC(=O)[C@H](CCCCN)NC(=O)[C@H](CC(N)=O)NC(=O)[C@H](CCCCN)NC(=O)[C@@H]4CSSC[C@H](NC(=O)[C@H](CO)NC(=O)[C@H](CCC(=O)O)NC(=O)CNC(=O)[C@H](CSSC[C@H](NC(=O)CNC1=O)C(=O)N[C@@H](CO)C(=O)N4)NC(=O)[C@@H]1CCCN1C(=O)[C@H](Cc1ccccc1)NC(=O)CNC(=O)[C@H](CC(N)=O)NC(=O)[C@H](CCCNC(=N)N)NC(=O)[C@H](Cc1ccc(O)cc1)NC3=O)C(=O)N[C@@H](C(C)C)C(=O)N[C@@H](Cc1ccccc1)C(=O)N[C@@H]([C@@H](C)CC)C(=O)N1CCC[C@H]1C(=O)N2` [CYCLOVIOLIN D] (cyclo(AAIGCSCKNKVCYRNGFPCGESCVFIPCIS); disulfide 5-19, 7-23, 12-28), for which the EC50 in data set [1] is 130 nM. The compound also returned a half-maximal inhibitory concentration (IC50) in the data set on CEM-SS (Homo sapiens) of 560 nM.
For `CC[C@H](C)[C@@H]1NC(=O)[C@H](CCSC)NC(=O)[C@H](C)NC(=O)[C@@H]2CSSC[C@@H]3NC(=O)[C@H](CO)NC(=O)[C@@H]4CSSC[C@H](NC(=O)[C@H](CO)NC(=O)[C@H]([C@@H](C)CC)NC(=O)[C@H](CO)NC(=O)[C@H](CC(N)=O)NC(=O)[C@H](CC(C)C)NC(=O)[C@H](Cc5ccc(O)cc5)NC(=O)[C@H](CSSC[C@H](NC(=O)[C@H](Cc5ccccc5)NC(=O)[C@H](CO)NC1=O)C(=O)N[C@@H](Cc1ccccc1)C(=O)N[C@@H]([C@@H](C)O)C(=O)N[C@@H](CCC(=O)O)C(=O)N[C@@H](C(C)C)C(=O)N[C@@H]([C@@H](C)CC)C(=O)NCC(=O)N4)NC(=O)[C@H](C(C)C)NC(=O)[C@H](CCCCN)NC(=O)[C@H](CC(N)=O)NC(=O)[C@H](CCCCN)NC3=O)C(=O)NCC(=O)N[C@@H](CCC(=O)O)C(=O)N[C@@H](CO)C(=O)N2` (cyclo(AMISFCFTEVIGCSCKNKVCYLNSISCGESC); disulfide 6-20, 13-27, 15-31), in [3], the EC50 was found to be 870 nM.
